Experimental data reported in patent US20100094407A1, “Multiple Bioactive Agent Eluting Stents” (Medtronic Vascular, Inc., priority 2008, published 2010).

Assay: Elution of fluocinolone and zotarolimus from coated stents, Example 1
Format: physicochemical
Conditions: 60 μg zotarolimus with or without 80 μg fluocinolone; FIG. 4
Text: In one embodiment, the present disclosure relates to a multiple bioactive agent eluting stent comprising a stent framework, at least two bioactive agents on the stent framework, wherein one or more of the at least two bioactive agents affects the elution rate of one or more of the other of the at least two bioactive agents. The elution rate or profile of the bioactive agents can be determined utilizing the methods showing in Examples 1 and 2 below. For example, total cumulative release of applied bioactive agents can be measured to determine total daily release and also release over a period of time greater than one day. The at least two bioactive agents may be applied together onto a stent framework. There may be one coating which contains all of the bioactive agents. Alternatively, the bioactive agents can be applied to the stent framework in separate coatings. Each coating may contain just one bioactive agent or more than one bioactive agent. The coatings may constitute separate layers. There can also be a base layer and cap layer on the stent framework. Base layer is located closest to the stent framework and the cap layer is a layer which is located furthest away from the stent framework. The layers can be uniform or non-uniform, meaning the layers can be in the form of, for example, dots or stripes or other non-uniform patterns.
12 mm parylene coated stents were used for all builds. […]

zotarolimus elution rate / total cumulative release, combination with fluocinolone vs zotarolimus alone: increased
SMILES: CO[C@H]1C[C@@H]2CC[C@@H](C)[C@@](O)(O2)C(=O)C(=O)N2CCCC[C@H]2C(=O)O[C@H]([C@H](C)C[C@@H]2CC[C@H](n3cnnn3)[C@H](OC)C2)CC(=O)[C@H](C)/C=C(\C)[C@@H](O)[C@@H](OC)C(=O)[C@H](C)C[C@H](C)/C=C/C=C/C=C/1C [zotarolimus]
